Series [1] is described as follows: Solubility of the APIs in ethanol and water vehicles. To be noted: for Solubility in words: water and ethanol; for solubility: water and ethanol vehicles, read-out: Solubility, 10 mg/ml API solution. The format is physicochemical.
The subject of another series is IL-8. As to the kind of experiment: Inflammation assay: IL-8 release of LPS-stimulated THP-1 cells. The format is cell-based, human. To be noted: for potency at inhibiting the LPS inflammatory response, in words / MIC for inhibiting the LPS inflammatory response (IL-8): dose range 0-30 ug/ml; for MIC for inhibiting the LPS inflammatory response (IL-8) / IL-8 release, in words: 24 h; for IL-8 release, in words: 30 ug/ml API, 100 ug/ml Nanocin.

Series [2] can be described thus: DLS particle size (z-average) and polydispersity index of API:Nanocin formulations. The format is physicochemical. The arrangement: z-average: unit not given here.
In series [3] the test system is P. acnes. In words: Bacterial lawn assay with soaked filter discs. The format is cell-based, Pseudomonas acnes. To be noted: Nanocin 1 mg/ml, Diclofenac 0.1-1 mg/ml. As for the experimental part:
The API's formulated with Nanocin were tested on 2 bacterial strains associated with acne. Staphylococcus epidermidis (S. epidermidis) and the anaerobic Pseudomonas acnes (P. acnes). Two types of assay were performed: (i) a bacterial lawn assay where the formulation was pipetted onto a Whatman filter disc and then added to a dried lawn of the bacteria growing on agar; and also, (ii) a liquid minimum inhibitory concentration (MIC) assay, where the bacteria were grown in 96 well plates. The bacterial lawn assay was much faster and easier to grow with the S. epidermidis as it was under aerobic conditions. The P. acnes growth on the agar plates was slower and difficult to capture on a camera (although possible to view by eye; see FIGS. 5c and 5d).

A short description of series [4]: In vitro permeation, Franz cell, ToF-SIMS of cross sections and tape strips. The format is in vitro ADME, pig. To be noted: for permeation, key findings: all methods.
The subject of series [5] is P. acnes. As to the kind of experiment: Liquid MIC assay in 96 well plates. The format is cell-based, Pseudomonas acnes. To be noted: Diclofenac 50-500 ug/ml. How it is done:
(§1) The API's formulated with Nanocin were tested on 2 bacterial strains associated with acne. Staphylococcus epidermidis (S. epidermidis) and the anaerobic Pseudomonas acnes (P. acnes). Two types of assay were performed: (i) a bacterial lawn assay where the formulation was pipetted onto a Whatman filter disc and then added to a dried lawn of the bacteria growing on agar; and also, (ii) a liquid minimum inhibitory concentration (MIC) assay, where the bacteria were grown in 96 well plates.
(§2) However, results from both were reliable.

For another series, the system named is TNF-α. As to the kind of experiment: Inflammation assay: TNF-α release of LPS-stimulated THP-1 cells. The format is cell-based, human. To be noted: final concentration 1 or 0.1 ug/ml. As for the experimental part:
The release of cytokines (looking particularly at those associated with acne inflammation-TNF-α, IL-8, IL-1α) after stimulation with lipopolysaccharide (LPS) is a valid model system to test compounds for potential anti-inflammatory effects (Reference 1)
To standardise conditions for the assay, a LPS dose (0-1 ug/ml) was investigated on TNF-α, IL-8 and IL-1α response, over a time period from 2,4 and 24 hours.
A 1:1 mg/ml (Nanocin:API) was initially formulated in 20% ethanol and the stock formulation was then diluted down with serum free media and tested at a final concentration of 1 or 0.1 ug/ml.

Another series has as its system S. epidermidis. As to the kind of experiment: Liquid MIC assay in 96 well plates. The format is cell-based, Staphylococcus epidermidis. To be noted: Diclofenac 50-500 ug/ml. How it is done:
as §1, §2

Where [6] appears, read: aqueous with cosolvent or surfactant or cyclodextrin, 5% ethanol.
Setting [7] is: aqueous with cosolvent or surfactant or cyclodextrin, 10% ethanol.
Where [8] appears, read: aqueous with cosolvent or surfactant or cyclodextrin, 15% ethanol.
[9] abbreviates: aqueous with cosolvent or surfactant or cyclodextrin, 20% ethanol.
Where [10] appears, read: aqueous with cosolvent or surfactant or cyclodextrin, 30% ethanol.

Results on five compounds are retold here after patent publication US20210275506A1, “COMPOSITIONS AND METHODS OF TREATMENT” (Blueberry Therapeutics Limited, priority 2018, published 2021).

Like-named read-outs stand apart in the source and are kept apart here.

On to `Cc1ccc(-c2cc(C(F)(F)F)nn2-c2ccc(S(N)(=O)=O)cc2)cc1` [Celecoxib], for which the Solubility in words result in series [1] is on record as “insolubility”. Also, the solubility in series [1] (setting [6]), in series [1] (setting [7]), in series [1] (setting [8]), in series [1] (setting [9]), in series [1] (setting [10]) and in series [1] (water) was below 10000 µg/mL in each case.

In the case of `O=C(O)Cc1ccccc1Nc1c(Cl)cccc1Cl` [Diclofenac], in the series with IL-8, the “potency at inhibiting the LPS inflammatory response, in words” value was “more potent than Ibuprofen”. Also, in the series with IL-8, the “MIC for inhibiting the LPS inflammatory response (IL-8)” value is 1 µg/mL. Besides, in the series on IL-8 (final concentration 1 or 0.1 ug/ml), the “LPS-stimulated IL-8 response, in words” value is on record as “reduced the LPS-stimulated inflammatory response”. Also, the PDI in series [2] (0.33:1 mg/ml API:N) was determined as 0.251; in series [2] (1:1 mg/ml API:N) it was 0.817. The Solubility in words result in series [1] was “most soluble”. Further, the solubility in series [1] (setting [7]), in series [1] (setting [8]), in series [1] (setting [9]), in series [1] (setting [10]) and in series [1] (water) was above 10000 µg/mL throughout. In addition, the “inhibition of bacterial growth (halo around disc)” value in the series on P. acnes [3] is listed as “not seen”. For the same compound, the “intensity of diclofenac salt ion markers in stratum corneum” value in series [4] (ToF-SIMS cross sections, 1 mg/ml Diclofenac) is on record as “slight elevation”. The “diclofenac salt ion markers in tape strips 1-3 (permeation into top layers of stratum corneum)” value in series [4] (ToF-SIMS tape strips, 1 mg/ml Diclofenac) was “does not and none”. In addition, the “bacterial growth inhibition / anti-bacterial activity of API alone” value in the series with P. acnes [5] was “did not exhibit any bacterial growth inhibition”. Moreover, the “LPS-stimulated TNF-α response, in words” value in the series on TNF-α was “reduced the LPS-stimulated inflammatory response”. The “bacterial growth inhibition by API alone” value in the series on S. epidermidis was “did not exhibit any bacterial growth inhibition”.

Consider `CC(C)Cc1ccc(C(C)C(=O)O)cc1` (centres unmarked) [Ibuprofen], for which the “IL-8 release, in words” value in the series on IL-8 is on record as “very little effect on reducing the IL-8 release”. Moreover, the PDI in series [2] (0.33:1 mg/ml API:N) is reported as 0.289; in series [2] (1:1 mg/ml API:N) it was 0.34. The z-average in series [2] (0.33:1 mg/ml API:N) is recorded as 194.1; in series [2] (1:1 mg/ml API:N), 311.9. For the same compound, the Solubility in words entry in series [1] is “better solubility in water and ethanol”. The “permeation, key findings” value in series [4] is on record as “no evidence”.

Regarding `CO[C@H]1C[C@@H]2CC[C@@H](C)[C@@](O)(O2)C(=O)C(=O)N2CCCC[C@H]2C(=O)O[C@H]([C@H](C)C[C@@H]2CC[C@@H](O)[C@H](OC)C2)CC(=O)[C@H](C)/C=C(\C)[C@@H](O)[C@@H](OC)C(=O)[C@H](C)C[C@H](C)/C=C/C=C/C=C/1C` [Rapamycin], in the series with IL-8, the “MIC for inhibiting the LPS inflammatory response (IL-8)” value worked out at 1 µg/mL. Further, the solubility in series [1] (setting [6]) was below 10000 µg/mL; in series [1] (setting [7]), below 10000 µg/mL; in series [1] (setting [8]), below 10000 µg/mL; in series [1] (setting [9]), below 10000 µg/mL; in series [1] (setting [10]), above 10000 µg/mL; in series [1] (water), below 10000 µg/mL. Moreover, the “permeation, key findings” value in series [4] was “no evidence”.

Regarding `C=CC[C@@H]1/C=C(\C)C[C@H](C)C[C@H](OC)[C@H]2O[C@@](O)(C(=O)C(=O)N3CCCC[C@H]3C(=O)O[C@H](/C(C)=C/[C@@H]3CC[C@@H](O)[C@H](OC)C3)[C@H](C)[C@@H](O)CC1=O)[C@H](C)C[C@@H]2OC` [Tacrolimus], the “IL-8 release, in words” value with IL-8 is “more effective anti-inflammatory”. Moreover, the “potency at inhibiting the LPS inflammatory response, in words” value in the series with IL-8 was “more potent than Ibuprofen”. In addition, in the series with IL-8, the “MIC for inhibiting the LPS inflammatory response (IL-8)” value was determined as 0.3 µg/mL. Besides, the results for the PDI in series [2] (0.33:1 mg/ml API:N) and in series [2] (1:1 mg/ml API:N) were 0.332 and 1, respectively. The z-average in series [2] (0.33:1 mg/ml API:N) worked out at 41.54; in series [2] (1:1 mg/ml API:N), 277.1. In addition, the “Solubility, 10 mg/ml API solution” value in series [1] (10% ethanol) was “x(better)”. The solubility is below 10000 µg/mL in series [1] (setting [6]); above 10000 µg/mL in series [1] (setting [8]); above 10000 µg/mL in series [1] (setting [9]); above 10000 µg/mL in series [1] (setting [10]); below 10000 µg/mL in series [1] (water). In series [4], the “permeation, key findings” value is on record as “no evidence”.
